Results on 1 molecule are retold here after ChEMBL document CHEMBL5725974, “ASK1 inhibitor compounds and uses thereof” (2018).

As a reminder, the IC50 is the point on the concentration scale where inhibition reaches its midpoint. A higher IC50 goes with weaker potency.

SMILES strings stand for the structures. A value given as a limit tells only on which side of the number the result lay.

This assay concerns the target T1, Mitogen-activated protein kinase kinase kinase 5 (Homo sapiens, UniProt Q99683).
T1 sequence (Q99683 whole entry): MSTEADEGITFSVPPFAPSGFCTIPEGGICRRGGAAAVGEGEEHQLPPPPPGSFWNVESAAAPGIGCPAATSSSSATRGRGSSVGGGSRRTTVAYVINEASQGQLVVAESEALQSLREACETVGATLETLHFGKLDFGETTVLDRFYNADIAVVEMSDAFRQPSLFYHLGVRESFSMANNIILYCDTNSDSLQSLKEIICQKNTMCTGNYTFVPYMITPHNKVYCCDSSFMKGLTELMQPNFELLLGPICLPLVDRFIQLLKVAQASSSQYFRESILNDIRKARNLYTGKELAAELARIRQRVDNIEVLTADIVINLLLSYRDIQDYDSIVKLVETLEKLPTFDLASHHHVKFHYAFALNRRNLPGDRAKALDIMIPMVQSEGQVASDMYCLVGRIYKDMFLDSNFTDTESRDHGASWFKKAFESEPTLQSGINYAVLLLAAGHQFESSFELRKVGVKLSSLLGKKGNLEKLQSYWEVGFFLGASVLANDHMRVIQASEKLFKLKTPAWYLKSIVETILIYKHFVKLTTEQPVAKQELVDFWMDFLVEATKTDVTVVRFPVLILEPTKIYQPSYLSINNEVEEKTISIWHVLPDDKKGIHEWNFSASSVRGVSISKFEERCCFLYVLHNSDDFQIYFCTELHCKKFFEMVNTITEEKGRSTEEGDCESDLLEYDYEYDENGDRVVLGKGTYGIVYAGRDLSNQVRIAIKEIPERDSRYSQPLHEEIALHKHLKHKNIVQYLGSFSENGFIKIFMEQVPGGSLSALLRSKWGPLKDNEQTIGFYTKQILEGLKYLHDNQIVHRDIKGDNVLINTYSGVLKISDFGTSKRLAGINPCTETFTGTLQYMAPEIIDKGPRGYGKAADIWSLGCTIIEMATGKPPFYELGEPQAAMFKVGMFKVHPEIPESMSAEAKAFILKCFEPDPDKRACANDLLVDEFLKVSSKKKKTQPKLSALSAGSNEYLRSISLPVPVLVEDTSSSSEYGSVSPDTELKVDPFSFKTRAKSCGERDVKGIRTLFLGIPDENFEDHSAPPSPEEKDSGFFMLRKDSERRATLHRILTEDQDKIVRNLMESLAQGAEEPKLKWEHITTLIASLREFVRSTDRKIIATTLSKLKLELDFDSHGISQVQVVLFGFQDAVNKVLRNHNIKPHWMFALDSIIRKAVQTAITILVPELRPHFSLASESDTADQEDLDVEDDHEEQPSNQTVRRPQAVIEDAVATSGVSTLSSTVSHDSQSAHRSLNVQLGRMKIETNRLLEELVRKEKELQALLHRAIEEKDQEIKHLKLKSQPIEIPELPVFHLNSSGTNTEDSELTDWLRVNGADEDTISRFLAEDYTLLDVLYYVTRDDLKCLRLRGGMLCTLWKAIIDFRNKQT
As to the kind of experiment: ASK1 Kinase Assay: The ASK1 enzymatic assay was run following Promega ASK1 Kinase Enzyme System (Cat #V3881). The kit provides the protocol, enzymes and all reagents necessary to run an assay. Firstly, the compounds, enzyme, substrate and ATP were diluted in provided assay buffer. The final concentration of the enzyme was 50 nM, substrate (Myelin basic protein) 1 μg/ml and ATP 10 μM. The compound and the enzyme were pre-incubated in a 384 well white solid bottom plate (Greiner, Cat#784075) for 10 minutes. After incubation, the substrate and ATP were added and incubated for further 60 minutes. After 60 minutes, ADP-Glo™ was added and plate was incubated for another 40 minutes. After 40 minutes, Kinase Detection Reagent was added and the plate was incubated for 45 minutes. After 45 minutes, plate was read on Perkin Elmer EnVision using luminescence read (0.5 seconds/well). In general terms: ADP-Glo turns the ADP formed in a reaction into a luminescent signal.

The molecule `O=C(NC1CC1)c1ccc2c(c1)CN(c1cccc(-c3nncn3C3CC3)n1)C2=O` yielded an IC50 below 200 nM.
